Laboratory results: patent US10925963B2, “Combination artemisinin and chemiluminescent photodynamic therapy and uses therefor” (Washington University, priority 2015, dated 2021)

Tests used:
[1] = test system: 3D7 (drug sensitive) parasites; assay: Chemiluminescence-based photodynamic therapy (CL-PDT) parasite growth; type: cell-based, Plasmodium falciparum; conditions: 50 μM succinylacetone
Procedure: Parasitemia was measured daily as indicated above.
The present inventors tested whether intraerythrocytic parasites might be uniquely susceptible to chemiluminescence-based photodynamic therapy (CL-PDT) (FIG. 9A). Artemisinin and its derivatives are current frontline drugs used for treatment of malaria, usually in combination with a partner drug. To test the efficacy of an artemisinin CL-PDT strategy for treatment of blood-stage malaria, we incubated intraerythrocytic parasites in 50-100 μM ALA with or without luminol and sub-therapeutic doses (≤10% of EC50) of dihyroartemisinin (DHA), with twice-daily media changes.

[2] = test system: asynchronous 3D7 parasites; assay: Parasite growth of ALA-treated cultures with daily white-light exposure; type: cell-based, Plasmodium falciparum
Procedure: Parasite growth was monitored by diluting asynchronous parasites to 0.5% parasitemia and allowing culture expansion with daily or twice daily media changes. […] To assess the light sensitivity of ALA-treated parasites, asynchronous parasites were cultured in 200-500 μM ALA in the absence or presence of 50 μM succinylacetone and subjected to 2-5 minute daily exposures to broad wavelength white light on an overhead projector. Daily parasitemia measurements were plotted as a function of time and fit to an exponential growth equation using Graph Pad Prism 5.0 (Graph Pad Software, Inc., La Jolla, Calif.).
To test the effects of these changes on bulk parasite culture, the present inventors monitored the growth of untreated versus ALA-treated parasites over several days with 2-minute daily exposures to broad-wavelength white light on an overhead projector light box. FIG. 4 depicts growth of asynchronous 3D7 parasites in the presence or absence of 200 μM ALA and 50 μM succinylacetone (SA), with 2-minute exposures to white light on an overhead projector on days 0-2. Parasitemia (percentage of total erythrocytes infected with parasites) as a function of time was fit with an exponential growth equation.

[3] = test system: heme biosynthesis enzymes in the erythrocyte cytoplasm; assay: LC-MS/MS detection of 13C-labelled PPIX and CPP from 13C-ALA in erythrocyte lysate supernatants; type: biochemical; conditions: 50 μM succinylacetone; 200 μM 5-[13C4]-ALA; saponin lysate supernatant, overnight 37° C.
Procedure: Parasites were cultured in 200 μM 5-[^13C4]-ALA for 12-24 hours, harvested by centrifugation, lysed in 0.05% cold saponin, washed in PBS, and extracted with DMSO. Deuteroporphyrin was added as an internal standard, and extracts were analyzed for ^13C-labeled heme, PPIX, and CPPIII using a previously published liquid chromatography-multiple reaction monitoring tandem mass spectrometry assay (Ke, H. et al., J. Biol. Chem. 289, 34827-34837, 2014).
To assess the heme biosynthesis capacity of the erythrocyte cytoplasm, 500 μl packed red blood cells (described previously; Sigala, P. A., et al., J. Biol. Chem. 287, 37793-37807, 2012) were lysed in 20 ml of 0.04% saponin/PBS (0.2 μM filtered) and centrifuged at 25,000×g for 60 minutes to pellet unlysed cells and any organelles. The superficial 15 ml of the lysate supernatant was removed and 0.2 μM filtered, supplemented with 200 μM 5-[^13C4]-ALA in the absence or presence of 50 μM succinylacetone, incubated overnight at 37° C., and analyzed by tandem mass spectrometry as described above.
In these investigations, red porphyrin fluorescence in ALA-treated intraerythrocytic parasites was not limited to the parasitophorous vacuole but was detectable throughout the erythrocyte cytoplasm (FIG. 3A), as expected for host enzyme activity in this compartment and production of PPIX. […]

[4] = test system: Plasmodium-infected erythrocytes; assay: Fluorescence microscopy of PPIX accumulation in parasite-infected erythrocytes; type: cell-based, Plasmodium falciparum; conditions: parasites grown in 200 μM ALA; epifluorescence microscope
Procedure: (§1) Images of live or fixed parasites were acquired on an Axio Imager.M1 epifluorescence microscope (Carl Zeiss Microimaging, Inc.) equipped with a Hamamatsu ORCA-ER digital CCD camera and running Axiovision 4.8 software, as described previously (Sigala, P. A., et al., J. Biol. Chem. 287, 37793-37807, 2012). Live parasite nuclei were stained with 5 μM Hoechst 33342 added immediately prior to image acquisition. For photodynamic imaging studies, parasites were cultured in 200-500 μM ALA in the absence or presence of 50 μM succinylacetone for 6-12 hours prior to visualization. Hemozoin movement in parasite digestive vacuoles were imaged by acquiring 10-20 sequential frames at 1 second intervals on the bright-field channel. Images were cropped and superimposed in Adobe Photoshop and exported as movie files with a 0.1 second frame delay. […]
The present inventors investigated whether ALA treatment could serve as a probe of heme biosynthesis activity in Plasmodium-infected erythrocytes by enabling direct visualization of PPIX production and the cellular consequences of light activation. Untreated parasites imaged on an epifluorescence microscope display only background auto-fluorescence from hemozoin crystals in the parasite digestive vacuole (FIG. 2). […]

uninfected erythrocytes = assay: Fluorescence microscopy of uninfected erythrocytes incubated in ALA; type: cell-based; conditions: 500 μM ALA
Procedure: as §1, with “delay. Immunofluorescence images were acquired by fixing and staining parasites as previously described (Tonkin, C. J., et al., Mol. Biochem. Parasitol 137, 13-21, 2004; Ponpuak, M., et al., Mol. Microbiol. 63, 314-334, 2007). Electron microscopy images were obtained as previously described (Beck., J. R., et al., Nature 511, 592-595, 2014).” for “delay.”
FIG. 7A depicts Bright field and fluorescence (Zeiss filter set 43 HE) images of uninfected erythrocytes incubated in 500 μM ALA before or after electroporation.

[5] = test system: hemozoin crystals in the parasite digestive vacuole; assay: Hemozoin dynamics in the digestive vacuole after light exposure; type: cell-based, Plasmodium falciparum; conditions: 200 μM ALA-treated parasites; fluorescence image acquisition overlapping PPIX excitation
Procedure: as §1
The cytotoxic effects of light-activating PPIX were readily apparent by monitoring the motion of hemozoin crystals that dynamically tumble within the digestive vacuole of individual parasites. […] FIG. 3A depicts bright field and fluorescence microscopy images of untreated and 200 μM ALA-treated parasites. Fluorescence images were acquired with a Zeiss filter set 43 HE (excitation 537-562 nm, emission 570-640 nm). […]

| Compound | rescue of cytotoxicity of the ALA/luminol/DHA combination [1] | rescue of photosensitivity of parasite growth in ALA ([2]; 50 μM succinylacetone with 200 μM ALA, 2-minute light exposures) | formation of 13C-labelled PPIX and coproporphyrin III from 13C-ALA [3] | growth of cultures in the presence of light ([2]; 200 μM ALA, 2-minute daily exposures to white light on days 0-2) | blood smear examination of light-exposed cultures ([2]; ALA-treated cultures, 2-minute daily white light) | photosensitivity of growth in ALA after apicoplast disruption ([2]; IPP/doxycycline-treated 3D7 parasites, 200 μM ALA, 2-minute light exposures) | photosensitivity of clonal growth in ALA ([2]; ΔPBGD and ΔCPO 3D7 parasite lines, 200 μM ALA, 2-minute light exposures days 0-2) | porphyrin (PPIX) fluorescence of infected erythrocytes [4] | porphyrin fluorescence of uninfected erythrocytes (uninfected erythrocytes; after electroporation) | porphyrin fluorescence of uninfected erythrocytes (uninfected erythrocytes; without electroporation) | hemozoin dynamics after light [5] |
| --- | --- | --- | --- | --- | --- | --- | --- | --- | --- | --- | --- |
| CC(=O)CC(=O)CCC(=O)O [succinylacetone] | could be rescued | fully rescued | fully blocked | – | – | – | – | – | – | – | – |
| NCC(=O)CCC(=O)O [ALA, 5-aminolevulinic acid] | – | – | – | strongly attenuated by light | predominantly contained pyknotic parasites | remained fully photosensitive | remained fully photosensitive | bright red fluorescence | robust intracellular porphyrin fluorescence | no detectable porphyrin fluorescence | rapidly ablated by light |
